The text below walks through data of article PMC7394479 (Journal of medicinal chemistry, 2020).

Molecules are shown by their SMILES. “Also recorded” adds a separate entry of the source. Where two headings read alike, the source gives them in different places.

Data set [1] can be described thus: Mouse liver microsomal stability.
The conditions of data set [2]: cited from earlier work.
The target of the next data set is human EP2 receptor (Homo sapiens, UniProt P43116). Kind of data set: Cell-based cAMP TR-FRET assay, Schild KB against PGE2 at EP2. The settings on record: for fold less EP2 potency in comparison to 2a: comparator 2a; for fold less potent than equivalent nicotinic derivative: 11a vs 8b, 11b vs 8g, 11c vs 8f. On the technique in general: Time-resolved FRET reads energy transfer from a long-lived donor to a nearby acceptor.

Data set [3] is described as follows: Kinetic aqueous solubility in PBS pH 7.4 by nephelometry. The class given is physicochemical. To be noted: comparator 2a.
In a further data set the target is human IP receptor (Homo sapiens, UniProt P43119). In words: Cell-based cAMP TR-FRET assay, Schild KB against iloprost at IP. To be noted: for S.I (IP/EP2): selectivity index IP KB/EP2 KB.
Data set [4] can be described thus: Solubility in simulated gastric fluid pH 2.0 by nephelometry. Type of data set: physicochemical.
Another data set concerns the target human EP4 receptor (Homo sapiens, UniProt P35408). Kind of data set: Cell-based cAMP TR-FRET assay, Schild KB against PGE2 at EP4. To be noted: for S.I (EP4/EP2): selectivity index EP4 KB/EP2 KB.
The target in another data set is T1, human DP1 receptor (Homo sapiens, UniProt Q13258).
T1 sequence (Q13258 1-359): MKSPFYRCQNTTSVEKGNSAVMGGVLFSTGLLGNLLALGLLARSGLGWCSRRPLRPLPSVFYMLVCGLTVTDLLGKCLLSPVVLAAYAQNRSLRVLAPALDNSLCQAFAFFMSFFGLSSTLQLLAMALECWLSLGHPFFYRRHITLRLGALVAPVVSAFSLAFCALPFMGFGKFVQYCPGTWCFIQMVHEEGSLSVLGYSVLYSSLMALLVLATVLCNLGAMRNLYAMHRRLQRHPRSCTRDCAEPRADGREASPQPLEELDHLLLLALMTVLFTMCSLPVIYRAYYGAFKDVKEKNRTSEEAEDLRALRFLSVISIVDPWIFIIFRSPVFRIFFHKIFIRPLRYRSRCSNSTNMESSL
Kind of data set: Cell-based cAMP TR-FRET assay, Schild KB against BW245C at DP1. The settings on record: for S.I. (DP1/EP2): selectivity index DP1 KB/EP2 KB.

Data set [5] in a line: Mouse pharmacokinetics and brain-to-plasma ratio. The class given is in vivo.
Data set [6] deals with MDR1-MDCK cell line.
Data set [7] can be described thus: 24 h shake flask thermodynamic solubility in neat water. Type of data set: physicochemical.
The nature of data set [8]: Human liver microsomal stability. Type of data set: in vitro ADME. To be noted: 1 μM compound, 0.5 mg/mL human liver microsomes (compounds 1 and 3).
Data set [9] deals with MDR1-MDCK cell line. In words: Permeability across MDR1-expressed MDCK cell monolayers.
The nature of data set [10]: Metabolite identification in mouse liver microsomes. Type of data set: in vitro ADME. To be noted: 20 min incubation, LC-MS/MS. In general terms: Liver microsomes are vesicles of endoplasmic reticulum, rich in cytochrome P450 enzymes.

Sequence of human EP4 receptor (P35408 whole entry): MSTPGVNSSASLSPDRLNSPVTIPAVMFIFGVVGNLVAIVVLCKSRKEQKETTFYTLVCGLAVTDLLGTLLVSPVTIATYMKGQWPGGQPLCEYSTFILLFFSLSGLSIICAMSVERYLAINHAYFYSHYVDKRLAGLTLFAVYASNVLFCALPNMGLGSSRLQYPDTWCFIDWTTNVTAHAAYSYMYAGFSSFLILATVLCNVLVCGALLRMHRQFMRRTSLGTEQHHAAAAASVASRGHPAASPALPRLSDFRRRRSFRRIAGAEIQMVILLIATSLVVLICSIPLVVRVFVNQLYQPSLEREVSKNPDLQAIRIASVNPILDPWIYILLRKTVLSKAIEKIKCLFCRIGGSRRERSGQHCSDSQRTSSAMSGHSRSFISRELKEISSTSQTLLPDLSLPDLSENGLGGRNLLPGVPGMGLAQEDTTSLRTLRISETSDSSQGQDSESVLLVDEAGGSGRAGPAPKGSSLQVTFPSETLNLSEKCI
Sequence of human IP receptor (P43119 whole entry): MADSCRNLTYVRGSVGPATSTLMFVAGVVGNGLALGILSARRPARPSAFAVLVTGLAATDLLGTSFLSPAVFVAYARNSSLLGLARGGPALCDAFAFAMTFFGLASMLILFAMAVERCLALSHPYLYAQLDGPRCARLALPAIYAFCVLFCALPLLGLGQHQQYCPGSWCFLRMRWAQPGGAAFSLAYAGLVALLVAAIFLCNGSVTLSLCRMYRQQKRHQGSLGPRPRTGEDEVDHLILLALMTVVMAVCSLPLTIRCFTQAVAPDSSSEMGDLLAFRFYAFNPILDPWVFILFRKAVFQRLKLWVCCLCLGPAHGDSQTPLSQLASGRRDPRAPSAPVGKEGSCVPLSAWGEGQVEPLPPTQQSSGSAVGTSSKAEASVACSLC
Sequence of human EP2 receptor (P43116 whole entry): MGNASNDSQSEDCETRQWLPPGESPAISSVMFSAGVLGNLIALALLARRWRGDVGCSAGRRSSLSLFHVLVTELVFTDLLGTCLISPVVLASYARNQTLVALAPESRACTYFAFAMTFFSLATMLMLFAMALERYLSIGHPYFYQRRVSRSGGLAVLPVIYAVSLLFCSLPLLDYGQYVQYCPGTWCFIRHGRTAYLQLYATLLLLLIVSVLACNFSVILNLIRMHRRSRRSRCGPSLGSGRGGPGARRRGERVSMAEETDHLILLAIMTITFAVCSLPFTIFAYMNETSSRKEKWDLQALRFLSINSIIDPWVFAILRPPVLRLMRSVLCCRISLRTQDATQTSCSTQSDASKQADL

What is called half-life is the time in which the quantity being followed falls by half. Read a high half-life as slow decline. In [1] (mouse, pooled liver microsomes), `Cc1[nH]c2ccccc2c1CCNC(=O)c1ccc(N2CCOCC2)cc1` [2a] had a half-life at 1 μM of less than 2 min. The “half-life in mouse liver microsomes” value in [2] was less than 2 min.
In the case of `Cc1[nH]c2ccccc2c1CCNC(=O)c1ccc(N2CCOCC2)nc1` [2b, N-(2-(2-Methyl-1H-indol-3-yl)ethyl)-6-morpholinonicotinamide], the “fold less EP2 potency in comparison to 2a” value on human EP2 receptor is listed as 4 fold. For the same molecule, the “fold increased aqueous solubility” value in data set [3] is reported as 3 fold.
Regarding `Cc1[nH]c2ccccc2c1CCNC(=O)c1ccc(-c2ccccc2F)nc1` [8e, 6-(2-Fluorophenyl)-N-(2-(2-methyl-1H-indol-3-yl)ethyl)nicotinamide], on human EP2 receptor, the “fold less EP2 potency in comparison to 2a” value was found to be 2 fold. Moreover, the “fold less EP2 potency in comparison to 8c” value on human EP2 receptor (comparator 8c (14b: vs. 14c or 8c)) is 4 fold.
As to `COc1cccc(-c2ccc(C(=O)NCCc3c(C)[nH]c4ccccc34)nc2)c1` [11a, 5-(3-Methoxyphenyl)-N-(2-(2-methyl-1H-indol-3-yl)ethyl)picolinamide], at human EP2 receptor, the “fold less potent than equivalent nicotinic derivative” value worked out at 4 fold.
Consider `COc1cc(OC)cc(-c2ccc(C(=O)NCCc3c(C)[nH]c4ccccc34)nc2)c1` [11b, 5-(3,5-Dimethoxyphenyl)-N-(2-(2-methyl-1H-indol-3-yl)ethyl)picolinamide], for which the “fold less potent than equivalent nicotinic derivative” value on human EP2 receptor was determined as 11 fold.
For orientation: solubility means how much of the substance goes into solution per volume. Low readings indicate a poorly soluble substance, high ones a readily soluble substance. Take `COc1ccccc1-c1ncc(C(=O)NCCc2c(C)[nH]c3ccccc23)cn1` [14a, 2-(2-Methoxyphenyl)-N-(2-(2-methyl-1H-indol-3-yl)ethyl)pyrimidine-5-carboxamide]: at human IP receptor, the “S.I (IP/EP2)” value was found to be 730. This molecule gave a solubility in data set [4] (simulated gastric fluid) greater than 100 µM. In addition, the “S.I (EP4/EP2)” value on human EP4 receptor stood at 517.
As for `Cc1[nH]c2ccccc2c1CCNC(=O)c1cnc(Nc2ccccn2)nc1` [20a, N-(2-(2-Methyl-1H-indol-3-yl)ethyl)-2-(pyridin-2-ylamino)pyrimidine-5-carboxamide], the “S.I. (DP1/EP2)” value on human DP1 receptor is given as greater than 900. In addition, the “S.I (IP/EP2)” value at human IP receptor is greater than 900.
Take `Cc1[nH]c2ccccc2c1CCNC(=O)c1cnc(Nc2cc(F)ccn2)nc1` [20c, 2-((4-Fluoropyridin-2-yl)amino)-N-(2-(2-methyl-1H-indol-3-yl)ethyl)pyrimidine-5-carboxamide]: the “in vivo stability in words” value in data set [5] (mouse, in vivo) is given as “unstable in vivo”. Further, on human IP receptor, the “S.I (IP/EP2)” value is reported as greater than 1500. At human EP4 receptor, the “S.I (EP4/EP2)” value is greater than 1500.
In the case of `Cc1cccc(Nc2ncc(C(=O)NCCc3c(C)[nH]c4ccccc34)cn2)n1` [20e, N-(2-(2-Methyl-1H-indol-3-yl)ethyl)-2-((6-methylpyridin-2-yl)amino)pyrimidine-5-carboxamide], the “S.I (IP/EP2)” value at human IP receptor was greater than 1500. Besides, on human EP4 receptor, the “S.I (EP4/EP2)” value was greater than 1500.
As to `Cc1[nH]c2ccccc2c1CCNC(=O)c1cnc(Nc2cccc(F)n2)nc1` [20f, 2-((6-Fluoropyridin-2-yl)amino)-N-(2-(2-methyl-1H-indol-3-yl)ethyl)pyrimidine-5-carboxamide], the “fold higher half-life in mouse liver microsomes” value in data set [1] (24i vs 20o, 20c vs 20b, 20f vs 20e) is 8 fold.
As to `COc1cccc(Nc2ncc(C(=O)NCCc3c(C)[nH]c4ccccc34)cn2)n1` [20h, 2-((6-Methoxypyridin-2-yl)amino)-N-(2-(2-methyl-1H-indol-3-yl)ethyl)pyrimidine-5-carboxamide], at human DP1 receptor, the Kb is greater than 10 µM and the “S.I. (DP1/EP2)” value is given as greater than 1280. At human IP receptor, the Kb is greater than 10 µM and the “S.I (IP/EP2)” value is on record as greater than 1280.
With `CC(=O)c1ccc(Nc2ncc(C(=O)NCCc3c(C)[nH]c4ccccc34)cn2)nc1` [20l, 2-((5-Acetylpyridin-2-yl)amino)-N-(2-(2-methyl-1H-indol-3-yl)ethyl)pyrimidine-5-carboxamide], the “fold reduced EP2 potency in comparison to 20b” value on human EP2 receptor (comparator 20b) was determined as 20 fold.
Turning to `Cc1cc(C)nc(Nc2ncc(C(=O)NCCc3c(C)[nH]c4ccccc34)cn2)c1` [20o, 2-((4,6-Dimethylpyridin-2-yl)amino)-N-(2-(2-methyl-1H-indol-3-yl)ethyl)pyrimidine-5-carboxamide], in data set [4], the solubility was greater than 250 µM. In addition, in the data set on MDR1-MDCK cell line [6], the “efflux pump substrate status” value was “not the substrate of efflux pumps”. For the same molecule, in the data set with MDR1-MDCK cell line [6] (dog), the “Permeability across MDR1-MDCK cell line, A-B” value is given as “B-A: 22.2 × 10^−6 cm/s A-B: 13.2 × 10^−6 cm/s” and the “Permeability across MDR1-MDCK cell line, B-A” value is reported as “B-A: 22.2 × 10^−6 cm/s A-B: 13.2 × 10^−6 cm/s”.
`Cc1cc(C)nc(Nc2ncc(C(=O)NCCc3c(C)[nH]c4ccccc34)cn2)c1.Cl` [20o.HCl, 2-((4,6-Dimethylpyridin-2-yl)amino)-N-(2-(2-methyl-1H-indol-3-yl)ethyl)pyrimidine-5-carboxamide.Hydrochloride]: in data set [7] (2 mg/mL in neat water, starting pH 6.4), the “water pH after dissolving the compound” value is 3.5.
As for `Cc1[nH]c2ccccc2c1CCNC(=O)c1cnc(Nc2ccncc2)nc1` [20p, N-(2-(2-Methyl-1H-indol-3-yl)ethyl)-2-(pyridin-4-ylamino)pyrimidine-5-carboxamide], the “EP2 potency in words” value at human EP2 receptor is “complete loss of potency”.
With `Cc1[nH]c2ccccc2c1CCNC(=O)c1cnc(Nc2cccnc2)nc1` [20q, N-(2-(2-Methyl-1H-indol-3-yl)ethyl)-2-(pyridin-3-ylamino)pyrimidine-5-carboxamide], on human IP receptor, the Kb was greater than 10 µM and the “S.I (IP/EP2)” value was greater than 1200. Also, on human EP4 receptor, the Kb is greater than 10 µM and the “S.I (EP4/EP2)” value is listed as greater than 1200.
`Cc1ccc(Nc2ncc(C(=O)NCCc3c(C)[nH]c4ccccc34)cn2)c(C)n1` [20r, 2-((2,6-Dimethylpyridin-3-yl)amino)-N-(2-(2-methyl-1H-indol-3-yl)ethyl)pyrimidine-5-carboxamide]: the “fold reduced EP2 potency” value on human EP2 receptor (comparator not clearly stated) is 10 fold.
For `Cc1cc(C)nc(Nc2ncc(C(=O)NCCc3c(C)[nH]c4ccc(Cl)cc34)cn2)c1` [24b, N-(2-(5-Chloro-2-methyl-1H-indol-3-yl)ethyl)-2-((4,6-dimethylpyridin-2-yl)amino)pyrimidine-5-carboxamide], at human IP receptor, the Kb was greater than 10 µM and the “S.I (IP/EP2)” value is listed as greater than 350. Further, at human EP4 receptor, the Kb is greater than 10 µM and the “S.I (EP4/EP2)” value was greater than 350.
With `Cc1cc(C)nc(Nc2ncc(C(=O)NCCc3c(C)[nH]c4c(F)cc(F)cc34)cn2)c1` [24c, N-(2-(5,7-Difluoro-2-methyl-1H-indol-3-yl)ethyl)-2-((4,6-dimethylpyridin-2-yl)amino)pyrimidine-5-carboxamide], on human IP receptor, the Kb was greater than 10 µM and the “S.I (IP/EP2)” value is greater than 500. The same molecule showed a solubility in data set [4] (simulated gastric fluid) greater than 100 µM.
`Cc1cc(C)nc(Nc2ncc(C(=O)NCCc3c(C)[nH]c4c(Cl)cc(Cl)cc34)cn2)c1.Cl` [24d.HCl]: in data set [7] (HCl salt, neat water, 2 mg/mL, 24 h shake flask, HPLC), the “Water solubility of corresponding HCl salt” value is “c The solubility of compounds measured in simulated gastric fluid at pH 2.0 by nephelometry. Compound 24dis a milky-white solution in DMSO and 24 h is an inactive compound. Therefore, their solubility is not determined by nephelometry, however, 24d.HClis highly water soluble”.
In the case of `Cc1cc(C)nc(Nc2ncc(C(=O)NCCc3c(C(F)(F)F)[nH]c4ccccc34)cn2)c1` [24f, 2-((4,6-Dimethylpyridin-2-yl)amino)-N-(2-(2-(trifluoromethyl)-1H-indol-3-yl)ethyl)pyrimidine-5-carboxamide], the “fold reduced EP2 potency in comparison to 20o” value on human EP2 receptor (comparator 20o) is listed as 8 fold.
For `Cc1cc(C)nc(Nc2ncc(C(=O)NCC(=O)c3c(C)[nH]c4ccccc34)cn2)c1` [24h, 2-((4,6-Dimethylpyridin-2-yl)amino)-N-(2-(2-methyl-1H-indol-3-yl)-2-oxoethyl)pyrimidine-5-carboxamide], the “EP2 potency in words” value on human EP2 receptor is given as “eliminated the potency”.
As for `COc1cc(/C=C/C(=O)NCCn2c(C(F)(F)F)cc3ccccc32)cc(OC)c1OC` [compound 1], in data set [5] (mice, ip/po, 10 mg/kg dose), the “In vivo plasma t1/2” value was 1.7 (ip/po, 10 mg/kg dose) h. In data set [1] (1 μM compound, 0.5 mg/mL mouse liver microsomes (compounds 1 and 3)), the “MLM t1/2” value amounted to 10 min. The “HLM t1/2” value in data set [8] is listed as 11 min. In addition, in the data set with MDR1-MDCK cell line [9] (apical-to-basolateral), the “Permeability across MDR1-MDCK cell line, A-B” value was 25.4 ×10⁻⁶ cm/s. The “Permeability across MDR1-MDCK cell line, B-A” value with MDR1-MDCK cell line [9] (basolateral-to-apical) turned out to be 27.1 ×10⁻⁶ cm/s.
Take `Cc1[nH]c2ccccc2c1CCNC(=O)c1ccc(-c2nnn[nH]2)cc1` [compound 3]: the “metabolic fragments in mouse liver microsomes” value in [10] is on record as “did not produce any fragments even after 20 minutes of incubation; also recorded: has not shown any metabolic fragments even after 20 min of incubation”. In addition, the “stability in mouse liver microsomes” value in data set [2] is greater than 60 min.
